In paper PMC8175490, “Validation of mathematical model with phosphate activation effect by batch (R)-phenylacetylcarbinol biotransformation process utilizing Candida tropicalis pyruvate decarboxylase in phosphate buffer” (Scientific Reports, 2021):

Target: T1, partially purified C. tropicalis TISTR 5350 pyruvate decarboxylase (PDC) (Candida tropicalis, UniProt C5MDS4)
T1 construct: gene CTRG_03826
Assay: global fit of six-ODE model to batch PAC biotransformation progress curves (HPLC, enzymatic pyruvate assay)
Type: biochemical
Conditions: carboligation with benzaldehyde (30/36 and 100/120 mM benzaldehyde/pyruvate); 250 mM phosphate pH 7.0, 4 °C, 1 mM TPP, 1 mM MgSO4; partially purified enzyme; model-fitted affinity constant; sigmoidal
Text: global fit of six-ODE model to batch PAC biotransformation progress curves (HPLC, enzymatic pyruvate assay) on partially purified C. tropicalis TISTR 5350 pyruvate decarboxylase (PDC)

T1 sequence (C5MDS4 entry or part of it): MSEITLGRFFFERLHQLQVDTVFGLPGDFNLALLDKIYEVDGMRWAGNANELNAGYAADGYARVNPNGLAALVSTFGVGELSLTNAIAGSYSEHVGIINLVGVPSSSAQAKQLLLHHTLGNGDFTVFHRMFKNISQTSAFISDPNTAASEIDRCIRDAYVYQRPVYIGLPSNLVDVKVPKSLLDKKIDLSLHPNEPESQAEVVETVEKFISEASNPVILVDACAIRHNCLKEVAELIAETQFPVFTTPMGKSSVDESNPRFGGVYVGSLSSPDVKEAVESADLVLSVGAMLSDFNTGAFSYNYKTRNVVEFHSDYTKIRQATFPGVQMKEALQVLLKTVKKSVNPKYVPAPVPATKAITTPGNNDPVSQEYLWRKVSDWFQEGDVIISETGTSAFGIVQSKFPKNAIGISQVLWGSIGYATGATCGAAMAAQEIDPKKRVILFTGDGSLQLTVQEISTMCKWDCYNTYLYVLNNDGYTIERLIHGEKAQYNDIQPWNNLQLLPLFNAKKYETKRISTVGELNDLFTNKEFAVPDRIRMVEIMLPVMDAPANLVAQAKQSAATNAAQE

For O=Cc1ccccc1 [B, benzaldehyde], the Optimized values was “(1.01 ± 0.02) × 10^–4 mM^1−h”.
